In US20070212716A1, “Nezara viridula Ecdysone Receptor” (Commonwealth Scientific & Industrial Research Org., priority 2006, published 2007):

B1: (His)6-tagged NvEcR10DEF (DEF domains / ligand binding region of Nezara viridula ecdysone receptor protein isoform NvEcR10) (receptor)
chain: MGMRGSHHHHHHRPECVVPEYQCAVKRKEKKAQKDKDKPVSTTNGSPESIKVEEPHRVVYKTEGETLGRPVPINGVKPVSPEQEELIHRLVYFQNEYEHPSEEDLRRIVSNTPNEDEEQSDQRFRHLTEITILTVQLIVEFAKRLPGFDKLLREDQIALLKACSSEVMMLRMARKYDATTDSILFANNQPYNRESYSLAGMGDVIEDLLRFCRHMFNMKVDNAEYALLTAIVIFSERPALIEGWKVEKIQEIYLEALKSYVDNRSRPRSPTIFAKLLSVLTELRTLGNQNSEMCFSLKLQNKKLPPFLAEIWDVNT
notes: Co-expressed with FLAG-NvUSPDEF in Sf9 cells from one baculovirus; also called His6EcRDEF10.1; EcRDEF
B2: (His)6-tagged NvEcR11DEF (DEF domains / ligand binding region of Nezara viridula ecdysone receptor protein isoform NvEcR11) (receptor)
chain: MGMRGSHHHHHHRPECVVPEYQCAVKRKEKKAQKDKDKPVSTTNGSPESIKVEEPHRVVYKTEGETLGRPVPINGVKPVSPEQEELIHRLVYFQNEYEHPSEEDLRRINTPNEDEEQSDQRFRHLTEITILTVQLIVEFAKRLPGFDKLLREDQIALLKACSSEVMMLRMARKYDATTDSILFANNQPYNRESYSLAGMGDVIEDLLRFCRHMFNMKVDNAEYALLTAIVIFSERPALIEGWKVEKIQEIYLEALKSYVDNRSRPRSPTIFAKLLSVLTELRTLGNQNSEMCFSLKLQNKKLPPFLAEIWDVNT
notes: Co-expressed with FLAG-NvUSPDEF in Sf9 cells from one baculovirus; also called His6EcRDEF11.1; EcRDEF

How the values were obtained:
NvEcR10DEF-NvUSPDEF = NvEcR10DEF-NvUSPDEF (Nezara viridula, UniProt E5L6Y1); test: Competition binding with [3H]ponasterone A, NvEcR10DEF-NvUSPDEF; conditions: for Ki: calculated from IC50 with the Cheng-Prusoff equation; for IC50: competition with 1.3 nM bindable [3H]ponasterone A
Protocol: (§1) Ligand binding was measured by a [^3H]ponasterone A binding assay which involved trapping of [^3H]ponasterone A-receptor protein complex on glass fibre discs and washing away unbound steroid before scintillation counting in a Packard Tri-carb scintillation analyser. All such assays, unless otherwise stated, were conducted at the same concentration of bindable [^3H]ponasterone A (2.2 nM, after correcting for the fraction of radioactive material that could never be bound no matter how much receptor was added). Binding by the receptor was expressed in terms of arbitrary units (U) that, in the linear range of the assay (i.e. up to 30 000 cpm bound per filter), were directly proportional to filter-bound cpm. Historically, IU was defined as the amount of [^3H]ponasterone A binding conveyed by a fixed volume of a specific receptor preparation. Differences in the assay over time were corrected for empirically by re-assaying the reference receptor preparation with each new batch of [^3H]ponasterone A and calculating a batch-specific adjustment that was incorporated into the numerical factor used to convert filter-bound cpm into ligand binding units. On average, 1 pmol of receptor-bound [^3H]ponasterone A corresponds to approximately 15.2 U. Specific activity values (U/μg protein) can be calculated for different preparations of purified receptor and these reflect the purity of the preparation, the proportion of receptor that is functional, and the Kd value for that particular receptor.
(§2) Increasing concentrations of, ponasterone A, muristerone A, 20-hydroxyecdysone, inokosterone, and α-ecdysone (2β, 3β, 14α,22R, 25-pentahydroxy-5β-cholest-7-ene-6-one) were used to study the ability to compete with a 1.3 nM bindable concentration of [^3H] ponasterone A for binding to the Nv recombinant heterodimers NvEcR10DEF−NvUSPDEF and NvEcR11DEF−NvUSPDEF. IC50 values were obtained from smooth curves drawn through the data points (see FIG. 6), and from these Ki values were calculated using the Cheng-Prusoff equation (Cheng et at, 1973).

NvEcR11DEF-NvUSPDEF = NvEcR11DEF-NvUSPDEF (Nezara viridula, UniProt E5L6Y2); test: Competition binding with [3H]ponasterone A, NvEcR11DEF-NvUSPDEF; conditions: for Ki: calculated from IC50 with the Cheng-Prusoff equation; for IC50: competition with 1.3 nM bindable [3H]ponasterone A
Protocol: as §1, §2

[1] = tested on: NvEcR10DEF-NvUSPDEF recombinant ecdysone receptor ligand binding region heterodimer; test: [3H]ponasterone A filter binding assay / equilibrium binding, NvEcR10DEF-NvUSPDEF; parameters: species or system Nezara viridula
Protocol: (§3) Ponasterone A binding data used in Kd determination for the purified recombinant heterodimers NvEcR10DEF−NvUSPDEF and NvEcR11DEF−NvUSPDEF (Kd curves). Rt=concentration of active receptor. L=free [^3H] Ponasterone A. All values in tables are given in pM.
as §1, with “Historically, IU was defined as the amount of [^3H]ponasterone A binding conveyed by a fixed volume of a specific receptor preparation. Differences in the assay over time were corrected for empirically by re-assaying the reference receptor preparation with each new batch of [^3H]ponasterone A and calculating a batch-specific adjustment that was incorporated into the numerical factor used to convert filter-bound cpm into ligand binding units.” left out, “receptor. […]” for “receptor.”

[2] = tested on: NvEcR11DEF-NvUSPDEF recombinant ecdysone receptor ligand binding region heterodimer; test: [3H]ponasterone A filter binding assay / equilibrium binding, NvEcR11DEF-NvUSPDEF; parameters: species or system Nezara viridula
Protocol: as §3
as §1, with “Historically, IU was defined as the amount of [^3H]ponasterone A binding conveyed by a fixed volume of a specific receptor preparation. Differences in the assay over time were corrected for empirically by re-assaying the reference receptor preparation with each new batch of [^3H]ponasterone A and calculating a batch-specific adjustment that was incorporated into the numerical factor used to convert filter-bound cpm into ligand binding units.” left out, “receptor. […]” for “receptor.”

[3] = molecular target: ecdysone receptor recombinant ligand binding domains (DEF regions) heterodimer; test: [3H]ponasterone A binding, Lucilia cuprina recombinant ligand binding region heterodimer; conditions: IMAC-purified Lucilia cuprina heterodimer; previously studied by this group
Protocol: as §1, with “Differences in the assay over time were corrected for empirically by re-assaying the reference receptor preparation with each new batch of [^3H]ponasterone A and calculating a batch-specific adjustment that was incorporated into the numerical factor used to convert filter-bound cpm into ligand binding units.” left out

[4] = molecular target: ecdysone receptor recombinant ligand binding domains (DEF regions) heterodimer; test: [3H]ponasterone A binding, Myzus persicae recombinant ligand binding region heterodimer; conditions: IMAC-purified Myzus persicae heterodimer; previously studied by this group
Protocol: as §1, with “Differences in the assay over time were corrected for empirically by re-assaying the reference receptor preparation with each new batch of [^3H]ponasterone A and calculating a batch-specific adjustment that was incorporated into the numerical factor used to convert filter-bound cpm into ligand binding units.” left out, “receptor. […]” for “receptor.”

[5] = molecular target: ecdysone receptor recombinant ligand binding domains (DEF regions) heterodimer; test: [3H]ponasterone A binding, Bemisia tabaci recombinant ligand binding region heterodimer; conditions: IMAC-purified Bemisia tabaci heterodimer; previously studied by this group
Protocol: as §1, with “Differences in the assay over time were corrected for empirically by re-assaying the reference receptor preparation with each new batch of [^3H]ponasterone A and calculating a batch-specific adjustment that was incorporated into the numerical factor used to convert filter-bound cpm into ligand binding units.” left out, “receptor. […]” for “receptor.”

[6] = molecular target: ecdysone receptor recombinant ligand binding domains (DEF regions) heterodimer; test: [3H]ponasterone A binding, Helicoverpa armigera recombinant ligand binding region heterodimer; conditions: IMAC-purified Helicoverpa armigera heterodimer; previously studied by this group
Protocol: as §1, with “Differences in the assay over time were corrected for empirically by re-assaying the reference receptor preparation with each new batch of [^3H]ponasterone A and calculating a batch-specific adjustment that was incorporated into the numerical factor used to convert filter-bound cpm into ligand binding units.” left out, “receptor. […]” for “receptor.”

[7] = molecular target: T1, FLAG-tagged NvUSPDEF (DEF domains / ligand binding region of Nezara viridula ultraspiracle protein) (Nezara viridula); test: IMAC co-purification of the heterodimer through the His6 tag on EcRDEF, from Sf9 cell extracts
T1 construct: Co-expressed with His6-EcRDEF (isoform 10 or 11) in Sf9 cells; also called FLAG USPDEF; FLAG USPDEF5.1
T1 chain: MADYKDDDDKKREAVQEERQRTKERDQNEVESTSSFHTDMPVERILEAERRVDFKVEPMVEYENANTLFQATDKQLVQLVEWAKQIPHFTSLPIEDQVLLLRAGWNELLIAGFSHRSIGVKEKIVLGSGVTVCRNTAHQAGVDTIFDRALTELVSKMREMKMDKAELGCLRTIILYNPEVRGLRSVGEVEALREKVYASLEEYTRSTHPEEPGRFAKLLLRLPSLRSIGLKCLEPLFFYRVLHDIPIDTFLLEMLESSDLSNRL

Row | Molecule | Ki (NvEcR10DEF-NvUSPDEF) | IC50 (NvEcR10DEF-NvUSPDEF) | Ki (NvEcR11DEF-NvUSPDEF) | IC50 (NvEcR11DEF-NvUSPDEF) | also measured
1 | CC(C(O)CCC(C)(C)O)C1CCC2(O)C3=CC(=O)C4CC(O)C(O)CC4(C)C3CCC12C [α-Ecdysone, 2β, 3β, 14α,22R, 25-pentahydroxy-5β-cholest-7-ene-6-one] | 46200 nM | 55000 nM | 45200 nM | 53000 nM | –
2 | 2β, 3β, 14α, 20R,22R,25-hexahydroxy-5β-cholest-7-′ene-6-one [20-hydroxyecdysone] | 3600 nM | 4000 nM | 3800 nM | 4500 nM | –
3 | CC(C)CC[C@@H](O)[C@](C)(O)[C@H]1CC[C@@]2(O)C3=CC(=O)[C@]4(O)C[C@@H](O)[C@@H](O)C[C@]4(C)[C@H]3[C@H](O)C[C@]12C [Muristerone A] | 100 nM | 120 nM | 100 nM | 120 nM | –
4 | CC(CO)CC[C@@H](O)[C@](C)(O)[C@H]1CC[C@@]2(O)C3=CC(=O)[C@@H]4C[C@@H](O)[C@@H](O)C[C@]4(C)[C@H]3CC[C@]12C (stereo partly drawn) [Inokosterone] | 6300 nM | 7500 nM | 6800 nM | 8000 nM | –
5 | [^3H]ponasterone A | – | – | – | – | Specific activity ([3H]ponasterone A binding units per μg protein) ([1]; IMAC-purified NvEcR10DEF-NvUSPDEF, 2.2 nM bindable [3H]ponasterone A): 5.0 U/μg; Kd ([1]; equilibrium binding of [3H]ponasterone A to IMAC-purified NvEcR10DEF-NvUSPDEF): 6.8 ± 0.8 nM; Specific activity ([3H]ponasterone A binding units per μg protein) ([2]; IMAC-purified NvEcR11DEF-NvUSPDEF, 2.2 nM bindable [3H]ponasterone A): 7.3 U/μg; Kd ([2]; equilibrium binding of [3H]ponasterone A to IMAC-purified NvEcR11DEF-NvUSPDEF): 7.5 ± 0.8 nM; Kd [3]: 1 ± 0.1 nM; Specific activity ([3H]ponasterone A binding units per μg protein) [3]: 15.4-24.3 U/μg; Kd [4]: 0.7 ± 0.1 nM; Specific activity ([3H]ponasterone A binding units per μg protein) [4]: 17.3-18.8 U/μg; Kd [5]: 1.2 ± 0.2 nM; Specific activity ([3H]ponasterone A binding units per μg protein) [5]: 11.3 U/μg; Kd [6]: 2.5 ± 0.1 nM
6 | CC(C)CC[C@@H](O)[C@](C)(O)[C@H]1CC[C@@]2(O)C3=CC(=O)[C@@H]4C[C@@H](O)[C@@H](O)C[C@]4(C)[C@H]3CC[C@]12C [Ponasterone A] | 200 nM | 260 nM | 200 nM | 280 nM | –
7 | B1 | – | – | – | – | binding result [7]: binds
8 | B2 | – | – | – | – | binding result [7]: binds
